Numbers after ± are expanded uncertainties.
details: 298.15 K; 101.33 kPa; Liquid; Vibrating tube method

**Q.** With `CCC[N+](C)(C)CC.O=S(=O)([N-]S(=O)(=O)C(F)(F)F)C(F)(F)F` as the compound, how does the mass density read?
**A.** 1403.5 ± 0.6 kg/m3

**Q.** With `CCCCCC[N+]1(C)CCCC1.O=S(=O)([N-]S(=O)(=O)C(F)(F)F)C(F)(F)F` as the compound, how does the mass density read?
**A.** 1336 ± 1.6 kg/m3

**Q.** Which mass density does the source give for `CCCCCC[n+]1ccn(C)c1.O=S(=O)([N-]S(=O)(=O)C(F)(F)F)C(F)(F)F` here?
**A.** 1371.6 ± 0.7 kg/m3

**Q.** For `CCCC[N+]1(C)CCCC1.O=S(=O)([N-]S(=O)(=O)C(F)(F)F)C(F)(F)F`, which mass density is on record?
**A.** 1394.3 ± 0.6 kg/m3

From the NIST ThermoML archive (doi:10.1016/j.fluid.2011.12.008)
